Read-outs that look alike come from different tables or passages of the source.
Key:
[1] = target: Mycoplasma fermentans DnaK-V5, expressed inside cells (codon-optimized DnaK vector transfected into (Mycoplasma fermentans)); assay: cell-based or functional assay
[2] = target: Recombinant purified exogenous Mycoplasma fermentans DnaK-V5 protein (eM-DnaK) (Mycoplasma fermentans); assay: SPR (BIAcore T100), eM-DnaK immobilized on CM5 chip (2274.9 RU), ARV-1502 as analyte
[3] = tested on: HCT116 cells infected with Mycoplasma; assay: Cell viability of Mycoplasma-infected HCT116 cells (LIVE/DEAD kit); assay type: cell-based, human; settings: 5FU or Nutlin-3, 48 hours
Procedure: FIG. 2. DnaK negatively affects p53 activities and Mycoplasma infection reduces the effect of anti-cancer drugs. (A) DnaK reduces p53-associated activities in HCT116 cells. Levels of p53, p21, Bax and PUMA proteins were analyzed in control, vector and DnaK transfected cells at different time-points (2, 8 and 16 hours). Expression of DnaK was verified using the anti-V5 antibody. NT: not transfected; VT: vector transfected; DnaK: DnaK transfected; M: media; D: DMSO; N: Nutlin. β-act: β-actin. Band intensity was measured by densitometric analysis. Numbers above bands indicate fold increase above level of nutlin-treated DnaK-transfected cells, normalized for the levels of β-actin. (B) DnaK increases cell cycle progression. HCT116 cells were transfected with a DnaK-expressing vector and subsequently analyzed for cell cycle progression. Data were collected 16-24 hours after transfection. Results represent mean and standard deviations of 5 different experiments. […] Results are expressed as percent cell viability over control (uninfected cells in media alone were considered as 100%). Mean difference is shown. *=p<0.001—calculated using Poisson regression.
HCT116 cells (colon carcinoma cell line) were obtained from ATCC. […] In all experiments cell viability was calculated as a percentage relative to the control cultures. […]

HCT116 cells [4] = assay: HCT116 cell viability (trypan blue) with cisplatin, exogenous DnaKs and DnaK inhibitor (Example 4); assay type: cell-based, human
Procedure: After 24 h, both eM-DnaK and eF-DnaK were added to the cultures at a concentration of 10 ug/ml. […] Parallel cultures of untreated cells were the negative control. […] After 48 h of treatment with the anti-cancer drugs, cell monolayers were washed in PBS, trypsinized and cell viability was measured using the trypan blue assay. The trypan blue exclusion assay allows for a direct identification and enumeration of live (unstained) and dead (blue) cells in the given population.
More in detail, we pre-treated both DnaKs with Telaprevir (25 μg/ml) before adding them to the culture of HCT116 cells. After 3 h of incubation the complex was added to the culture. After 24 h the cells were treated with the anti-cancer drugs and then subjected to count with trypan blue as previously described. Parallel cultures of cells treated with the drugs and DnaKs not complexed with Telaprevir were used as control.

M. tuberculosis DnaK = M. tuberculosis DnaK (Mycobacterium tuberculosis, UniProt P9WMJ9); settings: previously demonstrated; cited from earlier work
AGS cells = assay: cells; settings: Homo sapiens, 48 h
Procedure: (§1) FIG. 11. […] Parallel wells of untreated cells were used as negative control. Cell viability was assessed by using the trypan blue assay. Percentage of alive cells for each treatment are calculated as percentage using the untreated cell as reference. […] Statistical differences were tested using Student's t test. All statistical tests were two sided. p=***<0.001, **<0.01, *<0.05, ns=not significant.
as §1, with “14.” for “11.”, “p=*<0.05,” for “p=***<0.001,”, “***<0.001.” for “*<0.05, ns=not significant.”
(§2) To determine the effects of eM and eF-DnaKs on HCT116 and AGS cells lines treated with different anti-cancer drugs, cells were plated 200,000 cells/well in 6-wells plates. After 24 h, both eM-DnaK and eF-DnaK were added to the cultures at a concentration of 10 ug/ml. […] Parallel cultures of untreated cells were the negative controls. […] After 48 h of treatment with the anti-cancer drugs, cell monolayers were washed in PBS, trypsinized and cell viability was measured using the trypan blue assay. The trypan blue exclusion assay allows for a direct identification and enumeration of live (unstained) and dead (blue) cells in the given population.
(§3) More in detail, we pre-treated both exogenous DnaKs with ARV-1502 (25 μg/ml) before adding them to the culture of HCT116 or AGS cells. After 3 h of incubation the complex was added to the culture. After 24 h the cells were treated with the anti-cancer drugs and then subjected to count with trypan blue as previously described. Parallel cultures of cells treated with the drugs and DnaKs not complexed with ARV-1502 were used as control.

HCT116 cells [5] = assay: cells; settings: Homo sapiens, HCT-116, 48 h, 48 h
Procedure: as §1
as §1, with “14.” for “11.”, “p=*<0.05,” for “p=***<0.001,”, “***<0.001.” for “*<0.05, ns=not significant.”
as §2, §3

[6] = tested on: primary murine cancer cells constitutively expressing DnaK; assay: cells; settings: Mus musculus, read-out: cell viability

With ARV-1502 (peptide) the cell viability of DnaK-expressing primary murine cancer cells, 5FU plus ARV-1502 [1] was 40% and the Kd [2] was 1900 nM.

For COc1ccc(C2=N[C@@H](c3ccc(Cl)cc3)[C@@H](c3ccc(Cl)cc3)N2C(=O)N2CCNC(=O)C2)c(OC(C)C)c1 [Nutlin, Nutlin-3], the “effect of Mycoplasma infection on drug activity (cell viability)” value [3] was “resistance to these anti-cancer drugs”.

In the case of COc1cc(C(=O)NS(=O)(=O)c2ccccc2C)ccc1Cc1cn(C)c2ccc(NC(=O)OC3CCCC3)cc12 [Zafirlukast, zafirlukast], the “restoration of cisplatin anticancer activity” value (HCT116 cells [4]; HCT116, cisplatin in the presence of DnaK from M. fermentans and F. nucleatum (FIG. 9)) is reported as “restores anticancer activity of cisplatin”.

With N.N.[Cl][Pt][Cl] [cisplatin] the “blunting of the anti-cancer effect of the drug” value (HCT116 cells [4]; HCT116, cisplatin in the presence of eM-DnaK or eF-DnaK) was 40-50%.

In the case of CCC[C@H](NC(=O)[C@@H]1[C@H]2CCC[C@H]2CN1C(=O)[C@@H](NC(=O)[C@@H](NC(=O)c1cnccn1)C1CCCCC1)C(C)(C)C)C(=O)C(=O)NC1CC1 [Telaprevir, (3S,3aS,6aR)-2-[(2S)-2-[[(2S)-2-cyclohexyl-2-(pyrazine-2-carbonylamino)acetyl]amino]-3,3-dimethylbutanoyl]-N-[(3S)-1-(cyclopropylamino)-1,2-dioxohexan-3-yl]-3,3a,4,5,6,6a-hexahydro-1H-cyclopenta[c]pyrrole-3-carboxamide], the “restoration of cisplatin anti-cancer activity” value (HCT116 cells [4]; HCT116, cisplatin in the presence of eM-DnaK or eF-DnaK pre-treated with Telaprevir (25 μg/ml)) is given as “restoration of the original anti-cancer activity” and the “DnaK binding and ATPase activity” value (M. tuberculosis DnaK) is given as “bind to M. tuberculosis DnaK substrate-binding domain and to reduce its ATPase activity”.

Compound O=c1[nH]cc(F)c(=O)[nH]1 [5FU, 5-Fluorouracil] has a viability at 75 µM (AGS cells; read-out: cell viability, AGS, drug alone (eF-DnaK experiment), Cisplatin 2 μM or 5FU 75 μM, 48 h, % of untreated cells) of 31%, a viability at 75 µM (AGS cells; read-out: cell viability, AGS, drug alone (eM-DnaK experiment), Cisplatin 25 μM or 5FU 75 μM, 48 h, % of untreated cells) of 15% and a viability at 75 µM (AGS cells; read-out: cell viability, AGS, drug in the presence of eF-DnaK (10 ug/ml), Cisplatin 2 μM or 5FU 75 μM, 48 h) of 42%. For the same compound, the viability at 75 µM (AGS cells; read-out: cell viability, AGS, drug in the presence of eM-DnaK (10 ug/ml), Cisplatin 25 μM or 5FU 75 μM, 48 h) was 33%, the viability at 75 µM (HCT116 cells [5]; read-out: cell viability, HCT116, drug alone (eF-DnaK experiment), Cisplatin 2 μM or 5FU 75 μM, % of untreated cells) was 14% and the viability at 75 µM (HCT116 cells [5]; read-out: cell viability, HCT116, drug alone (eM-DnaK experiment), Cisplatin 25 μM or 5FU 75 μM, % of untreated cells) was 14%. For the same compound, the viability at 75 µM (HCT116 cells [5]; read-out: cell viability, HCT116, drug in the presence of eF-DnaK (10 ug/ml), Cisplatin 2 μM or 5FU 75 μM) was 17%, the viability at 75 µM (HCT116 cells [5]; read-out: cell viability, HCT116, drug in the presence of eM-DnaK (10 ug/ml), Cisplatin 25 μM or 5FU 75 μM) was 16% and the “effect of Mycoplasma infection on drug activity (cell viability)” value [3] was “resistance to these anti-cancer drugs”. The viability at 75 µM [6] was 55%.
